# In article PMC6792352, “Limited Chemical Structural Diversity Found to Modulate Thyroid Hormone Receptor in the Tox21 Chemical Library” (Environmental Health Perspectives, 2019):
# Counter-ions that a name gives are not always drawn. Like-named read-outs stand apart in the source and are kept apart here.
# Experiments:
# GH3-TRE-Luc cell line = conditions: read-out: AC50 (uM) modified / 1000, viability, 1 nM T3 present, 24 h
# in vitro = conditions: rat, gh3-tre-luc cells, AC50 (uM) modified / 1000
smiles,measurement,setting,value
CC/C(=C(/CC)c1ccc(O)cc1)c1ccc(O)cc1 [Diethylstilbestrol],CC50,GH3-TRE-Luc cell line; Tox21_110001=Tox21_300526,28.7 µM
same,CC50 at 24 h,in vitro,55.5 µM
CCc1cccc(CC)c1N(COC)C(=O)CCl [Alachlor],CC50,GH3-TRE-Luc cell line; Tox21_110001=Tox21_300713,78.7 µM
same,CC50 at 24 h,in vitro,> 90 µM
CC(C)(C)C(=O)C1C(=O)c2ccccc2C1=O [Pindone],CC50,GH3-TRE-Luc cell line; Tox21_110001=Tox21_303317,71.8 µM
same,CC50 at 24 h,in vitro,60.9 µM
CN(C)CCOc1ccc(/C(=C(/CCCl)c2ccccc2)c2ccccc2)cc1 [Toremifene citrate],CC50,GH3-TRE-Luc cell line; Tox21_110001=Tox21_111877,11.4 µM
same,CC50 at 24 h,in vitro,8.87 µM
CC(C)(c1ccccc1)c1ccc(O)cc1 [4-Cumylphenol],CC50,GH3-TRE-Luc cell line; Tox21_110001=Tox21_300056,51 µM
same,CC50 at 24 h,in vitro,45.2 µM
C=CC(=O)OCCOCCOCCOCCOC(=O)C=C [Tetraethylene glycol diacrylate],CC50,GH3-TRE-Luc cell line; Tox21_110001=Tox21_202993,17.8 µM
same,CC50 at 24 h,in vitro,17.7 µM
CC(=O)OC/C=C(C)/C=C/C=C(C)/C=C/C1=C(C)CCCC1(C)C [Retinol acetate],CC50,GH3-TRE-Luc cell line; Tox21_110001=Tox21_201423,65.7 µM
same,CC50 at 24 h,in vitro,> 50 µM
CC[C@H]1OC(=O)[C@H](C)[C@@H](O[C@H]2C[C@@](C)(OC)[C@@H](O)[C@H](C)O2)[C@H](C)[C@@H](O[C@@H]2O[C@H](C)C[C@H](N(C)C)[C@H]2O)[C@](C)(O)C[C@@H](C)CN(C)[C@H](C)[C@@H](O)[C@]1(C)O [Azithromycin],CC50,GH3-TRE-Luc cell line; Tox21_110001=Tox21_111008,35.5 µM
same,CC50 at 24 h,in vitro,28.3 µM
CN(C)c1ccc(C(=N)c2ccc(N(C)C)cc2)cc1 [Auramine hydrochloride],CC50,GH3-TRE-Luc cell line; Tox21_110001=Tox21_303002,57.6 µM
same,CC50 at 24 h,in vitro,63.2 µM
CCCCCCCOC(=O)c1ccc(O)cc1 [Heptylparaben],CC50,GH3-TRE-Luc cell line; Tox21_110001=Tox21_303458,50.7 µM
same,CC50 at 24 h,in vitro,47.8 µM
Cc1cc(C2(c3cc(C)c(O)cc3C)OS(=O)(=O)c3ccccc32)c(C)cc1O [p-Xylenol blue],CC50,GH3-TRE-Luc cell line; Tox21_110001=Tox21_303062,47.5 µM
same,CC50 at 24 h,in vitro,56.6 µM
O=c1[nH]c2ccccc2n1C1CCN(CCCC(c2ccc(F)cc2)c2ccc(F)cc2)CC1 [Pimozide],CC50,GH3-TRE-Luc cell line; Tox21_110001=Tox21_110224,7.02 µM
same,CC50 at 24 h,in vitro,8.93 µM
O=c1c(O)c(-c2ccc(O)cc2)oc2cc(O)cc(O)c12 [Kaempferol],CC50,GH3-TRE-Luc cell line; Tox21_110001=Tox21_303363,50 µM
same,CC50 at 24 h,in vitro,66.6 µM
OCCN1CCN(CCCN2c3ccccc3C=Cc3ccccc32)CC1 [Opipramol dihydrochloride],CC50,GH3-TRE-Luc cell line; Tox21_110001=Tox21_113153,8.37 µM
same,CC50 at 24 h,in vitro,6.78 µM
C=CC(=O)OCC(CO)(COC(=O)C=C)COC(=O)C=C [Pentaerythritol triacrylate],CC50,GH3-TRE-Luc cell line; Tox21_110001=Tox21_303252,2.61 µM
same,CC50 at 24 h,in vitro,1.77 µM
CC[n+]1c(-c2ccccc2)c2cc(N)ccc2c2ccc(N)cc21 [Ethidium bromide],CC50,GH3-TRE-Luc cell line; Tox21_110001=Tox21_111123,37.9 µM
same,CC50 at 24 h,in vitro,47.9 µM
"Nc1ccc(Cl)cc1N [4-Chloro-1,2-diaminobenzene]",CC50,GH3-TRE-Luc cell line; Tox21_110001=Tox21_400037,> 90 µM
same,CC50 at 24 h,in vitro,73 µM
N#Cc1nn(-c2c(Cl)cc(C(F)(F)F)cc2Cl)c(N)c1[S+]([O-])C(F)(F)F (stereo not drawn) [Fipronil],CC50,GH3-TRE-Luc cell line; Tox21_110001=Tox21_111300,36.1 µM
same,CC50 at 24 h,in vitro,49.6 µM
Cc1ccc(C(C)(C)C)c(O)c1 [2-tert-Butyl-5-methylphenol],CC50,GH3-TRE-Luc cell line; Tox21_110001=Tox21_300486,47.9 µM
same,CC50 at 24 h,in vitro,81 µM
Oc1ccc2cc(SSc3ccc4cc(O)ccc4c3)ccc2c1 [6-Hydroxy-2-naphthyl disulfide],CC50,GH3-TRE-Luc cell line; Tox21_110001=Tox21_303354,81.2 µM
same,CC50 at 24 h,in vitro,> 90 µM
Oc1ccc(Cl)cc1Cc1cc(Cl)ccc1O [Dichlorophen],CC50,GH3-TRE-Luc cell line; Tox21_110001=Tox21_111112,15.4 µM
same,CC50,GH3-TRE-Luc cell line; Tox21_110001=Tox21_303013,27.4 µM
same,CC50 at 24 h,in vitro,16.7 µM
CCCCCCCC[N+](C)(C)CCCCCCCC [Dioctyldimethylammonium chloride],CC50,GH3-TRE-Luc cell line; Tox21_110001=Tox21_113024,20.1 µM
same,CC50 at 24 h,in vitro,19.4 µM
COC1=CC(=O)C[C@@H](C)[C@]12Oc1c(Cl)c(OC)cc(OC)c1C2=O [Griseofulvin],CC50,GH3-TRE-Luc cell line; Tox21_110001=Tox21_303005,49.1 µM
same,CC50 at 24 h,in vitro,> 90 µM
"COc1cc(-c2ccc(N)c(OC)c2)ccc1N [3,3'-Dimethoxybenzidine dihydrochloride]",CC50,GH3-TRE-Luc cell line; Tox21_110001=Tox21_300315,65 µM
same,CC50 at 24 h,in vitro,> 90 µM
O=C1NCCN1CCN1CCC(c2cn(-c3ccc(F)cc3)c3ccc(Cl)cc23)CC1 [Sertindole],CC50,GH3-TRE-Luc cell line; Tox21_110001=Tox21_113421,6.74 µM
same,CC50 at 24 h,in vitro,5.55 µM
CCCCCCCCCCCC[N+](C)(C)CCOc1ccccc1 [Domiphen bromide],CC50,GH3-TRE-Luc cell line; Tox21_110001=Tox21_111054,12.4 µM
same,CC50 at 24 h,in vitro,10.6 µM
"O=Cc1ccccc1C=O [1,2-Benzenedicarboxaldehyde]",CC50,GH3-TRE-Luc cell line; Tox21_110001=Tox21_112347,8.06 µM
same,CC50 at 24 h,in vitro,4.89 µM
CC(C)(C)C(O)(CCc1ccc(Cl)cc1)Cn1cncn1 (stereo not drawn) [Tebuconazole],CC50,GH3-TRE-Luc cell line; Tox21_110001=Tox21_300487,57.7 µM
same,CC50 at 24 h,in vitro,64.3 µM
COC(=O)C1=C(C)NC(C)=C(C(=O)OCC(C)C)C1c1ccccc1[N+](=O)[O-] (stereo not drawn) [Nisoldipine],CC50,GH3-TRE-Luc cell line; Tox21_110001=Tox21_112251,37.2 µM
same,CC50 at 24 h,in vitro,51.4 µM
"ClC(Cl)=C(c1ccc(Cl)cc1)c1ccc(Cl)cc1 [p,p'-DDE]",CC50,GH3-TRE-Luc cell line; Tox21_110001=Tox21_300109,63.5 µM
same,CC50 at 24 h,in vitro,48.6 µM
CCc1cc(Cl)c(OC)c(C(=O)NC[C@@H]2CCCN2CC)c1O [Eticlopride hydrochloride],CC50,GH3-TRE-Luc cell line; Tox21_110001=Tox21_111229,25.3 µM
same,CC50,GH3-TRE-Luc cell line; Tox21_110001=Tox21_113585,33.6 µM
same,CC50 at 24 h,in vitro,19.6 µM
CC[C@@]1([C@@H]2O[C@@H]([C@H]3O[C@@](O)(CO)[C@H](C)C[C@@H]3C)C[C@@H]2C)CC[C@H]([C@]2(C)CC[C@]3(C[C@H](O)[C@@H](C)[C@@H]([C@@H](C)[C@@H](OC)[C@H](C)C(=O)O)O3)O2)O1 [Monensin sodium],CC50,GH3-TRE-Luc cell line; Tox21_110001=Tox21_113191,0.38 µM
same,CC50 at 24 h,in vitro,0.446 µM
OC(c1ccc(Cl)cc1)(c1cncnc1)c1ccccc1Cl (stereo not drawn) [Fenarimol],CC50,GH3-TRE-Luc cell line; Tox21_110001=Tox21_300650,82.8 µM
same,CC50 at 24 h,in vitro,> 90 µM
CC#C[C@]1(O)CC[C@H]2[C@@H]3CCC4=CC(=O)CCC4=C3[C@@H](c3ccc(N(C)C)cc3)C[C@@]21C [Mifepristone],CC50,GH3-TRE-Luc cell line; Tox21_110001=Tox21_110952,9.81 µM
same,CC50,GH3-TRE-Luc cell line; Tox21_110001=Tox21_301841,36.7 µM
CC1=CC(=C(c2ccc(N)cc2)c2ccc(N)cc2)C=CC1=N [C.I. Basic Violet 14],CC50,GH3-TRE-Luc cell line; Tox21_110001=Tox21_112288,15.1 µM
same,CC50,GH3-TRE-Luc cell line; Tox21_110001=Tox21_202790,5.54 µM
Clc1ccc2c(c1)C(N1CCNCC1)=Nc1ccccc1O2 [Amoxapine],CC50,GH3-TRE-Luc cell line; Tox21_110001=Tox21_302352,20.3 µM
CCCCCCCCCCCC(=O)O [Triethanolamine Laurate],CC50,GH3-TRE-Luc cell line; Tox21_110001=Tox21_302696,85.4 µM
CCCC[n+]1ccc(C)cc1 [1-Butyl-4-methylpyridinium chloride],CC50,GH3-TRE-Luc cell line; Tox21_110001=Tox21_202685,39.2 µM
